# According to article PMC8355244, “A fragment-based approach identifies an allosteric pocket that impacts malate dehydrogenase activity” (Communications Biology, 2021):
# Assay: Precipitation / turbidity of compound in assay buffer (600 nm)
# Type: physicochemical
# Settings: activity screening buffer, 500 µM
# Experimental: 1.3 µL of derivatives of 4-phenylthiazol-2-amine in 100% DMSO were mixed with 237.7 µL of a mastermix of WT PfMDH previously incubated with NAD+. The final compound concentration used in this screening was 500 µM in the presence of 0.5% (v/v) DMSO. The microplate was sealed with silver foil for 1-h incubation at 25–35 °C. Finally, reactions in both the samples and control wells were started upon the addition of 13.0 µL of 5 mM malate). At the end of the experiments, the reaction of the plate was spectrophotometrically assayed at 600 nm in order to identify turbidity due to the low solubility of the compound. All measurements were performed in duplicate.
smiles,measurement,value
CC(C)c1ccc(-c2csc(N)n2)cc1 [compound 10a],precipitation of compound in the buffer,precipitation of compound was observed
